The supplement of paper PMC11061612

How the values were obtained:
Test in all cases: combination Emax (second highest fraction inhibited in the dose matrix, 72 h); higher = more inhibition; extreme values may be limits of the assay
[1] = tested on: SNU-407 (Colorectal Carcinoma)
Outline: (§1)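 After 24 hours at 37°C and 5% CO2 in 1536-well plates, cells in DMEM/F12 or RPMI plus 10% FBS received two-drug dose matrices for 72 hours. Viability came from CellTiter-Glo 2.0 luminescence and was scaled as inhibition, anchored at 0 by vehicle wells and at 1 by blank wells. Combination Emax is taken as the second-highest inhibition in the matrix, and Bliss excess as the observed combination effect less EA + EB − EA·EB, with EA and EB the single-agent effects.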

[2] = tested on: PA-TU-8988T (Pancreatic Carcinoma)
Outline: as §1

[3] = tested on: MOLT-13 (T-Lymphoblastic Leukemia)
Outline: as §1

[4] = tested on: COR-L88 (Small Cell Lung Carcinoma)
Outline: as §1

[5] = tested on: NCI-H1876 (Small Cell Lung Carcinoma)
Outline: as §1

[6] = tested on: MDA-MB-415 (Breast Carcinoma)
Outline: as §1

NCI-H226 (Mesothelioma) = tested on: NCI-H226 (Mesothelioma)
Outline: as §1

[7] = tested on: P32-ISH (Burkitt's Lymphoma)
Outline: as §1

ES6 (Ewing's Sarcoma) = tested on: ES6 (Ewing's Sarcoma)
Outline: as §1

[8] = tested on: SNU-C2B (Colorectal Carcinoma)
Outline: as §1

UACC-257 (Melanoma) = tested on: UACC-257 (Melanoma)
Outline: as §1

[9] = tested on: SAT (Head and Neck Carcinoma)
Outline: as §1

[10] = tested on: DBTRG-05MG (Glioblastoma)
Outline: as §1

[11] = tested on: CPC-N (Small Cell Lung Carcinoma)
Outline: as §1

[12] = tested on: P30-OHK (B-Lymphoblastic Leukemia)
Outline: as §1

[13] = tested on: OAW-28 (Ovarian Carcinoma)
Outline: as §1

[14] = tested on: SUP-M2 (T-Cell Non-Hodgkin's Lymphoma)
Outline: as §1

[15] = tested on: CL-11 (Colorectal Carcinoma)
Outline: as §1

[16] = tested on: NCI-H1963 (Small Cell Lung Carcinoma)
Outline: as §1

SMILES	combination Emax [1]	combination Emax [2]	combination Emax [3]	combination Emax [4]	combination Emax [5]	combination Emax [6]	combination Emax (NCI-H226 (Mesothelioma))	combination Emax [7]	combination Emax (ES6 (Ewing's Sarcoma))	combination Emax [8]	combination Emax (UACC-257 (Melanoma))	combination Emax [9]	combination Emax [10]	combination Emax [11]	combination Emax [12]	combination Emax [13]	combination Emax [14]	combination Emax [15]	combination Emax [16]
CN(C)CCCOc1ccc(-c2ccc3ncc4c(c3c2)n(C2CCOCC2)c(=O)n4C)cn1 [AZD0156] + O=C(c1cc(Cc2n[nH]c(=O)c3ccccc23)ccc1F)N1CCN(C(=O)C2CC2)CC1 [Olaparib] (first compound max 3 µM, partner max 3 µM)	0.296	0.211	0.397	0.16	0.807	0.325	0.251	0.628	0.315	0.239	0.21	0.133	0.152	0.396	0.668	0.284	0.606	0.358	
C=CCn1c(=O)c2cnc(Nc3ccc(N4CCN(C)CC4)cc3)nc2n1-c1cccc(C(C)(C)O)n1 [AZD1775] + C1CN(CCC1(C(=O)N[C@@H](CCO)C2=CC=C(C=C2)Cl)N)C3=NC=NC4=C3C=CN4 [Capivasertib] (first compound max 3 µM, partner max 3 µM)	0.675	0.851	0.973	0.703	0.956	0.764	0.45	1	0.472	0.702	0.455	0.563	0.474	0.948	0.947	0.593	1	0.734	
COc1nnc2ccc(N3CCC(c4ccc(OCCN5CCN(C)C(=O)[C@H]5C)cc4)CC3)nn12 [AZD5153] + C=CCn1c(=O)c2cnc(Nc3ccc(N4CCN(C)CC4)cc3)nc2n1-c1cccc(C(C)(C)O)n1 [AZD1775] (first compound max 1 µM, partner max 1 µM)	0.89	0.778	1	0.677	0.99	0.44	0.448	0.982	0.516	0.584	0.359	0.785	0.369	0.918	1	0.701	0.996	0.809	0.952
COc1nnc2ccc(N3CCC(c4ccc(OCCN5CCN(C)C(=O)[C@H]5C)cc4)CC3)nn12 [AZD5153] + CC1(C)CCC(CN2CCN(c3ccc(C(=O)NS(=O)(=O)c4ccc(NCC5CCOCC5)c([N+](=O)[O-])c4)c(Oc4cnc5[nH]ccc5c4)c3)CC2)=C(c2ccc(Cl)cc2)C1 [Venetoclax] (first compound max 1 µM, 7x7, partner max 1 µM)	0.902	0.664	0.987	0.348	0.3	0.409	0.438	0.701	0.292	0.545	0.305	0.723	0.252	0.539	1	0.352	0.965	0.677	0.988
COc1nnc2ccc(N3CCC(c4ccc(OCCN5CCN(C)C(=O)[C@H]5C)cc4)CC3)nn12 [AZD5153] + CCN(CCO)CCCOc1ccc2c(Nc3cc(CC(=O)Nc4cccc(F)c4)[nH]n3)ncnc2c1 [AZD2811] (first compound max 1 µM, 7x7, partner max 1 µM)	0.866	0.695	1	0.237	0.708	0.502	0.443	0.873	0.43	0.581	0.372	0.775	0.333	0.697	1	0.431	0.994	0.677	0.882
COc1nnc2ccc(N3CCC(c4ccc(OCCN5CCN(C)C(=O)[C@H]5C)cc4)CC3)nn12 [AZD5153] + CN(CC[C@H](CSC1=CC=CC=C1)NC2=C(C=C(C=C2)S(=O)(=O)NC(=O)C3=CC=C(C=C3)N4CCC(CC4)[C@H](C5=CC=CC=C5C6=CC=C(C=C6)Cl)O)S(=O)(=O)C(F)(F)F)CCO [AZD4320] (first compound max 1 µM, 7x7, partner max 1 µM)	0.902	0.695	1		0.977			0.68		0.55	0.413	0.804	0.399		1	1	0.986	0.782	1
COc1nnc2ccc(N3CCC(c4ccc(OCCN5CCN(C)C(=O)[C@H]5C)cc4)CC3)nn12 [AZD5153] + C[C@@H]1COCCN1C2=NC(=NC(=C2)C3(CC3)[S@](=N)(=O)C)C4=C5C=CNC5=NC=C4 [AZD6738] (first compound max 1 µM, 7x7, partner max 10 µM)	0.958	0.778	1	0.548	0.887	0.597	0.37	0.957	0.585	0.658	0.394	0.804	0.307	0.967	1	0.851	1	0.833	0.91
COc1nnc2ccc(N3CCC(c4ccc(OCCN5CCN(C)C(=O)[C@H]5C)cc4)CC3)nn12 [AZD5153] + Cc1c2c(nn1C)CSCc1cc(n(C)n1)CSc1cc(c3ccccc3c1)OCCCc1c(C(=O)O)n(C)c3c-2c(Cl)ccc13 [AZD5991] (first compound max 1 µM, 7x7, partner max 1 µM)	0.977	0.886	1	0.807	0.949	0.693	0.407	1	0.45	0.568	0.501	0.914	0.205	0.751	1	0.666	1	0.768	0.89
COc1nnc2ccc(N3CCC(c4ccc(OCCN5CCN(C)C(=O)[C@H]5C)cc4)CC3)nn12 [AZD5153] + Cn1cnc2c(F)c(Nc3ccc(Br)cc3Cl)c(C(=O)NOCCO)cc21 [Selumetinib] (first compound max 1 µM, 7x7, partner max 10 µM)	0.938	0.778	0.979	0.247	0.23	0.429	0.377	0.65	0.297	0.573	0.825	0.843	0.399	0.451	0.999	0.498	1	0.967	0.757
Cc1c2c(nn1C)CSCc1cc(n(C)n1)CSc1cc(c3ccccc3c1)OCCCc1c(C(=O)O)n(C)c3c-2c(Cl)ccc13 [AZD5991] + CN(C)CCCOc1ccc(-c2ccc3ncc4c(c3c2)n(C2CCOCC2)c(=O)n4C)cn1 [AZD0156] (first compound max 1 µM, 7x7, partner max 1 µM)	0.676	0.214	1	0.3	0.629	0.463	0.293	1	0.279	0.215	0.277	0.638	0.221	0.314	0.71	0.25	1	0.164	0.354
NC1(C(=O)N[C@@H](CCO)c2ccc(Cl)cc2)CCN(c2ncnc3[nH]ccc23)CC1 [Capivasertib] + CC(=O)c1c(C)c2cnc(Nc3ccc(N4CCNCC4)cn3)nc2n(C2CCCC2)c1=O [Palbociclib] (first compound max 10 µM, 7x7, partner max 10 µM)	0.678	0.456	0.732	0.226	0.253	0.769	0.3	0.774	0.46	0.424	0.276	0.662	0.23	0.382	0.56	0.191	0.89	0.358	0.477
CC(=O)c1c(C)c2cnc(Nc3ccc(N4CCNCC4)cn3)nc2n(C2CCCC2)c1=O [Palbociclib] + CN(CC[C@H](CSC1=CC=CC=C1)NC2=C(C=C(C=C2)S(=O)(=O)NC(=O)C3=CC=C(C=C3)N4CCC(CC4)[C@H](C5=CC=CC=C5C6=CC=C(C=C6)Cl)O)S(=O)(=O)C(F)(F)F)CCO [AZD4320] (first compound max 10 µM, 7x7, partner max 1 µM)	0.483	0.33	0.975		0.926			0.735		0.599	0.183	0.485	0.529		0.967	0.889	0.897	0.759	1
C[C@@H](c1ccc2nccn2c1)n1nnc2ncc(-c3cnn(C)c3)nc21 [Savolitinib] + CN(CC[C@H](CSC1=CC=CC=C1)NC2=C(C=C(C=C2)S(=O)(=O)NC(=O)C3=CC=C(C=C3)N4CCC(CC4)[C@H](C5=CC=CC=C5C6=CC=C(C=C6)Cl)O)S(=O)(=O)C(F)(F)F)CCO [AZD4320] (first compound max 1 µM, 7x7, partner max 1 µM)	0.722	0.191	0.912		0.797			0.165		0.212	0.411	0.189	0.439		0.948	0.903	0.287	0.173	1
